Measured values as given in patent publication US10112941B2, “Tricyclic compounds as anticancer agents” (BRISTOL-MYERS SQUIBB COMPANY, priority 2013, dated 2018).
pIC50: −log10 of the molar value.

Each compound was assayed against BRD4 (Homo sapiens, UniProt O60885) (assay: Time Resolved Fluorescence Resonance Energy Transfer (TR-FRET) binding assay, BRD4). Conditions: FRET BRD4 IC50 (nM), one of the FRET assays described.
`Cn1nnc(Cl)c1-c1cnc2c3ccc(C(C)(C)O)cc3n([C@H](c3ccccc3)C3CCOCC3)c2c1` [Example 387, 2-[3-(4-Chloro-1-methyl-1H-1,2,3-triazol-5-yl)-5-[(S)-oxan-4-yl(phenyl)methyl]-5H-pyrido[3,2-b]indol-7-yl]propan-2-ol] showed an IC50 of under 5 nM.

Same assay, conditions: one of the FRET assays described; read-out: FRET BRD4 IC50
With `COc1c(C(C)(C)O)ccc2c3ncc(-c4c(C)nnn4C)cc3n([C@H](c3ccccc3)C3CCOCC3)c12` [Example 355, 2-[3-(Dimethyl-1H-1,2,3-triazol-5-yl)-6-methoxy-5-[(S)-oxan-4-yl(phenyl)methyl]-5H-pyrido[3,2-b]indol-7-yl]propan-2-ol] the pIC50 was over 8.30.
For `Cc1nnn(C)c1-c1cnc2c3ccc(C(C)(C)O)cc3n([C@H](c3ccc(F)cc3)C3CCOCC3)c2c1` [Example 72], the pIC50 was over 7.60.
`Cc1nnn(C)c1-c1cnc2c3ccc(CS(C)(=O)=O)cc3n([C@H](c3cc(Cl)ccn3)C3CCOCC3)c2c1` [Example 335] showed a pIC50 of over 8.30.
With `[2H]C([2H])([2H])c1nnn(C)c1-c1cnc2c3c(OCC(F)F)ccc(S(C)(=O)=O)c3n([C@H](c3ccccc3)C3CCOCC3)c2c1` [Example 229, 5-[9-(2,2-Difluoroethoxy)-6-methanesulfonyl-5-[(S)-oxan-4-yl(phenyl)methyl]-5H-pyrido[3,2-b]indol-3-yl]-4-(^2H3)methyl-1-methyl-1H-1,2,3-triazole] the pIC50 was over 8.30.
For `Cc1noc(C)c1-c1cnc2c3ccc(C(C)(C)O)cc3n(C(c3ccccc3)c3cscn3)c2c1` (single isomer, unassigned) [Example 29, 2-[3-(Dimethyl-1,2-oxazol-4-yl)-5-[phenyl(1,3-thiazol-4-yl)methyl]-5H-pyrido[3,2-b]indol-7-yl]propan-2-ol], the pIC50 was over 8.30.
`Cc1nnc(C)n1-c1cnc2c3ccc(C(C)(C)O)cc3n(C(c3ccccc3)C3CCOCC3)c2c1` (stereo in doubt) [Example 357, 2-[3-(Dimethyl-4H-1,2,4-triazol-4-yl)-5-[(R)-oxan-4-yl(phenyl)methyl]-5H-pyrido[3,2-b]indol-7-yl]propan-2-ol] was tested, and the pIC50 was over 8.30.
Compound `[2H]C([2H])([2H])Oc1nnn(C)c1-c1cnc2c3ccc(C(C)(C)O)cc3n([C@H](c3ccccc3)C3CCOCC3)c2c1` [Example 378, 2-{3-[4-(^2H3)Methoxy-1-methyl-1H-1,2,3-triazol-5-yl]-5-[(S)-oxan-4-yl(phenyl)methyl]-5H-pyrido[3,2-b]indol-7-yl}propan-2-ol] has a pIC50 of over 8.30.
With `Cc1noc(C)c1-c1cnc2c3ccc(C(C)(C)O)cc3n([C@@H](c3ccccc3)C3CC3)c2c1` [Example 12] the pIC50 was over 7.60.
`[2H]C([2H])([2H])c1nnn(C)c1-c1cnc2c3c(F)ccc(S(C)(=O)=O)c3n([C@H](c3ccc(F)cc3)C3CCOCC3)c2c1` [Example 233, 5-{9-Fluoro-5-[(S)-(4-fluorophenyl)(oxan-4-yl)methyl]-6-methanesulfonyl-5H-pyrido[3,2-b]indol-3-yl}-4-(^2H3)methyl-1-methyl-1H-1,2,3-triazole] showed a pIC50 of over 8.30.
For `COC(=O)NC(C)(C)c1ccc2c3ncc(-c4c(C)nnn4C)cc3n([C@H](c3ccccc3)C3CCOCC3)c2c1F` [Example 464, Methyl N-{2-[3-(dimethyl-1H-1,2,3-triazol-5-yl)-6-fluoro-5-[(S)-oxan-4-yl(phenyl)methyl]-5H-pyrido[3,2-b]indol-7-yl]propan-2-yl}carbamate], the pIC50 was over 8.30.
For `Cc1cc(C(C2CCOCC2)n2c3cc(C(C)(C)O)ccc3c3ncc(-c4c(C)nnn4C)cc32)no1` (single isomer, unassigned) [Example 286, 2-[3-(Dimethyl-1H-1,2,3-triazol-5-yl)-5-[(5-methyl-1,2-oxazol-3-yl)(oxan-4-yl)methyl]-5H-pyrido[3,2-b]indol-7-yl]propan-2-ol], the pIC50 was over 8.30.
Work on `[2H]C([2H])([2H])c1nnn(C)c1-c1cnc2c3c(F)cc(S(C)(=O)=O)cc3n(C(c3ncccc3F)C3CCC(F)(F)CC3)c2c1` (stereo not drawn) [Example 211, 2-[(4,4-Difluorocyclohexyl)({9-fluoro-7-methanesulfonyl-3-[4-(^2H3)methyl-1-methyl-1H-1,2,3-triazol-5-yl]-5H-pyrido[3,2-b]indol-5-yl})methyl]-3-fluoropyridine] yielded a pIC50 of over 8.30.
Compound `[2H]C([2H])([2H])c1nnn(C)c1-c1cnc2c3c(OC)cc(S(C)(=O)=O)cc3n(C(c3ncccc3F)C3CCOCC3)c2c1` (stereo not drawn) [Example 207, 3-Fluoro-2-[{7-methanesulfonyl-9-methoxy-3-[4-(^2H3)methyl-1-methyl-1H-1,2,3-triazol-5-yl]-5H-pyrido[3,2-b]indol-5-yl}(oxan-4-yl)methyl]pyridine] has a pIC50 of over 8.30.
`Cc1nnn(C)c1-c1cnc2c3cc(C(C)(C)O)ccc3n([C@H](c3ccccc3)C3CCOCC3)c2c1` [Example 175, 2-[3-(Dimethyl-1H-1,2,3-triazol-5-yl)-5-[(S)-oxan-4-yl(phenyl)methyl]-5H-pyrido[3,2-b]indol-8-yl]propan-2-ol] was tested, and the pIC50 was over 8.30.
`[2H]C([2H])([2H])c1nnn(C)c1-c1cnc2c3c(OC)ccc(S(C)(=O)=O)c3n([C@H](c3ccc(F)cc3)C3CCOCC3)c2c1` [Example 191, 5-{5-[(S)-(4-Fluorophenyl)(oxan-4-yl)methyl]-6-methanesulfonyl-9-methoxy-5H-pyrido[3,2-b]indol-3-yl}-4-(^2H3)methyl-1-methyl-1H-1,2,3-triazole] was tested, and the pIC50 was over 8.30.
With `Cc1nnn(C)c1-c1cnc2c3ccc(C(C)(C)O)cc3n(C(c3c(F)cc(F)cc3F)C3CCOCC3)c2c1` (single isomer, unassigned) [Example 103, 2-[3-(Dimethyl-1H-1,2,3-triazol-5-yl)-5-[oxan-4-yl(2,4,6-trifluorophenyl)methyl]-5H-pyrido[3,2-b]indol-7-yl]propan-2-ol] the pIC50 was over 8.30.
In the case of `Cc1noc(C)c1-c1cnc2c3ccc(CC(C)(C)O)cc3n([C@H](c3ccccc3)C3CCOCC3)c2c1` [Example 252, 1-[3-(Dimethyl-1,2-oxazol-4-yl)-5-[(S)-oxan-4-yl(phenyl)methyl]-5H-pyrido[3,2-b]indol-7-yl]-2-methylpropan-2-ol], the pIC50 was over 8.30.
`Cc1nnn(C)c1-c1cnc2c3c(C(=O)NC4CC4)cccc3n([C@H](c3ccccc3)C3CCOCC3)c2c1` [Example 151, N-Cyclopropyl-3-(dimethyl-1H-1,2,3-triazol-5-yl)-5-[(S)-oxan-4-yl(phenyl)methyl]-5H-pyrido[3,2-b]indole-9-carboxamide] showed a pIC50 of over 8.30.
`[2H]C([2H])([2H])c1onc(C)c1-c1cnc2c3ccc(C(C)(C)O)cc3n([C@H](c3ccccc3)C3CCOCC3)c2c1` [Example 192, 2-{3-[5-(^2H3)Methyl-3-methyl-1,2-oxazol-4-yl]-5-[(S)-oxan-4-yl(phenyl)methyl]-5H-pyrido[3,2-b]indol-7-yl}propan-2-ol] showed a pIC50 of over 8.30.
For `Cc1nnn(C)c1-c1cnc2c3ccc(C(C)(C)O)cc3n(C(c3ncccc3F)C3CCOCC3)c2c1` (single isomer, unassigned) [Example 293], the pIC50 was over 8.30.
Compound `Cc1nnn(C)c1-c1cnc2c3ccc(S(C)(=O)=O)cc3n(C(c3ccccc3)C3CCC(F)(F)CC3)c2c1` (single isomer, unassigned) [Example 157, 5-{5-[(4,4-Difluorocyclohexyl)(phenyl)methyl]-7-methanesulfonyl-5H-pyrido[3,2-b]indol-3-yl}-1,4-dimethyl-1H-1,2,3-triazole] has a pIC50 of over 8.30.
`Cc1nnn(C)c1-c1cnc2c3ccc(C(C)(O)C4CC4)cc3n([C@H](c3ccccc3)C3CCOCC3)c2c1` (single isomer, unassigned) [Example 423] showed a pIC50 of over 8.30.
Compound `Cc1noc(C)c1-c1cnc2c3ccc(C(C)(C)O)cc3n([C@H](CCC(F)(F)F)c3ccccc3)c2c1` [Example 10] has a pIC50 of over 7.60.
Work on `Cn1nnc(Br)c1-c1cnc2c3cc(Br)c(C(C)(C)O)cc3n([C@H](c3ccccc3)C3CCOCC3)c2c1` [Example 383, 2-[8-Bromo-3-(4-bromo-1-methyl-1H-1,2,3-triazol-5-yl)-5-[(S)-oxan-4-yl(phenyl)methyl]-5H-pyrido[3,2-b]indol-7-yl]propan-2-ol] yielded a pIC50 of over 8.30.
`Cc1nnn(C)c1-c1cnc2c3ccc(C(C)(C)O)c(F)c3n(C(c3ccncc3F)C3CCOCC3)c2c1` (single isomer, unassigned) [Example 288] gave a pIC50 of over 8.30.
In the case of `Cc1noc(C)c1-c1cnc2c3ccc(S(C)(=O)=O)cc3n([C@H](c3ccccc3)C3CCOCC3)c2c1` [Example 171, 4-{7-Methanesulfonyl-5-[(S)-oxan-4-yl(phenyl)methyl]-5H-pyrido[3,2-b]indol-3-yl}-3,5-dimethyl-1,2-oxazole], the pIC50 was over 8.30.
`Cc1nnn(C)c1-c1cnc2c3ccc(CO)cc3n([C@H](c3ccccc3)C3CCOCC3)c2c1` [Example 405, [3-(Dimethyl-1H-1,2,3-triazol-5-yl)-5-[(S)-oxan-4-yl(phenyl)methyl]-5H-pyrido[3,2-b]indol-7-yl]methanol] was tested, and the pIC50 was over 8.30.
In the case of `Cc1noc(C)c1-c1cnc2c3ccc(C(C)(C)O)cc3n([C@@H](c3ccc(F)cc3)C3CCOC(C)(C)C3)c2c1` (stereo partly drawn) [Example 18], the pIC50 was over 5.82.
`Cc1nnn(C)c1-c1cnc2c3cc(F)c(C(C)(C)O)cc3n(C(c3ccc(F)cc3)C3CCOCC3)c2c1` (single isomer, unassigned) [Example 79, 2-[3-(Dimethyl-1H-1,2,3-triazol-5-yl)-8-fluoro-5-[(4-fluorophenyl)(oxan-4-yl)methyl]-5H-pyrido[3,2-b]indol-7-yl]propan-2-ol] was tested, and the pIC50 was over 7.60.
In the case of `Cc1noc(C)c1-c1cnc2c3ccc(C(C)(C)O)cc3n(C(CCC(F)(F)F)c3cocn3)c2c1` (single isomer, unassigned) [Example 35, 2-[3-(Dimethyl-1,2-oxazol-4-yl)-5-[4,4,4-trifluoro-1-(1,3-oxazol-4-yl)butyl]-5H-pyrido[3,2-b]indol-7-yl]propan-2-ol], the pIC50 was over 7.60.
Work on `Cc1nnn(C)c1-c1cnc2c3ccc(S(C)(=O)=O)cc3n([C@H](c3ccc(F)cc3)C3CCOCC3)c2c1` [Example 178, 5-{5-[(S)-(4-Fluorophenyl)(oxan-4-yl)methyl]-7-methanesulfonyl-5H-pyrido[3,2-b]indol-3-yl}-1,4-dimethyl-1H-1,2,3-triazole] yielded a pIC50 of over 8.30.
Compound `Cc1nnn(C)c1-c1cnc2c3ccc(C(N)=O)c(F)c3n([C@H](c3ccccc3)C3CCOCC3)c2c1` [Example 460, 3-(Dimethyl-1H-1,2,3-triazol-5-yl)-6-fluoro-5-[(S)-oxan-4-yl(phenyl)methyl]-5H-pyrido[3,2-b]indole-7-carboxamide] has a pIC50 of over 8.30.
